Earlier results as cited in patent US9265822B2 (priority 2009, dated 2016).

tested on: 2009 H1N1 swine flu virus

SMILES | resistance or susceptibility of the virus
CCOC(=O)C1=C[C@@H](OC(CC)CC)[C@H](NC(C)=O)[C@@H](N)C1 [oseltamivir] | susceptible
CC(N)C12CC3CC(CC(C3)C1)C2 (stereo not shown) [rimantadine] | resistant
CC(=O)N[C@H]1[C@H]([C@H](O)[C@H](O)CO)OC(C(=O)O)=C[C@@H]1N=C(N)N [zanamivir] | susceptible
NC12CC3CC(CC(C3)C1)C2 [amantadine] | resistant
